Columns and labels:
[1] = Mass balance: recovery of total radioactivity in urine and feces (part A); type: in vivo, human; conditions: post dose; single IV dose 25 mg/m^2
Description: This was a two-part (A and B), open-label, multicenter, mass balance, distribution, metabolism, excretion (DME) study in adult patients with advanced solid tumors. In part A, patients received a single IV infusion of [^14C]-pevonedistat 25 mg/m^2 (containing approximately 60–85 µCi, or 2.22–3.145 MBq, of total radioactivity) at a single center (Duna Medical Center, Budapest, Hungary). Patients were required to stay at the part A study site for approximately 8 days or until the discharge criteria were met, with a maximum estimated confinement period of 9–14 days. […]
The primary objectives of the study were to assess the mass balance (cumulative recovery of total radioactivity in urine and feces) and to characterize the PK of pevonedistat (whole blood, plasma, and urine) and total radioactivity (drug-related material; plasma and whole blood) following a single infusion of [^14C]-pevonedistat 25 mg/m^2 (part A).
Blood samples were collected for total radioactivity and PK assessments in whole blood and plasma at prespecified time points (pre dose [within 1 h before the start of the pevonedistat infusion], end of infusion, then 0.5, 1, 2, 3, 4, 8, 12, 24, 48, 72, 96, 120, 144 and 168 hours post dose). Complete urinary and fecal output were collected for analysis of PK (urine) and total radioactivity (urine and feces) throughout the confinement period until discharge criteria were met. […]

[2] = test system: human colon and lung tumor xenograft models; design: method as in PMID 19509147; conditions: repeated dosing, immunocompromised mice; cited from earlier work
[3] = test system: acute myeloid leukemia (AML) xenograft models; design: method as in PMID 20203261; conditions: mice; cited from earlier work
[4] = test system: tumor cell lines including solid tumors (colon, lung) and hematological malignancies (myeloma, lymphoma); design: method as in PMID 19509147, PMID 20525923, PMID 20203261; conditions: preclinical studies; cited from earlier work

Question: For NS(=O)(=O)OC[C@@H]1C[C@@H](n2ccc3c(N[C@H]4CCc5ccccc54)ncnc32)C[C@@H]1O [Pevonedistat], which “time by which the majority of the radioactivity was recovered” value [1] is on record?
Answer: ≤ 96 h

Question: What about the tumor growth [2] of the same compound?
Answer: tumor growth inhibition

Question: And the disease course [3]?
Answer: durable disease regression

Question: What about the “antitumor activity in cell lines” value [4] of the same compound?
Answer: growth inhibition
